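Results reflect a 48-hour exposure of cells in 96-well plates to compound at five concentrations. At the GI50, growth is halved. TGI denotes the concentration required for complete inhibition of growth.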
Legend:
Experiment in all cases: growth of human tumour cells (NCI), 48 h
[1] = test system: IGROV1 ovarian
[2] = test system: HL-60(TB) leukemia
[3] = test system: M14 melanoma
[4] = test system: U251 CNS
[5] = test system: EKVX NSCLC
[6] = test system: HCT-15 colon
[7] = test system: UACC-62 melanoma
[8] = test system: SF-295 CNS
[9] = test system: UO-31 renal
[10] = test system: MCF7 breast
[11] = test system: BT-549 breast
[12] = test system: HOP-62 NSCLC
[13] = test system: OVCAR-4 ovarian
[14] = test system: SNB-19 CNS
[15] = test system: SK-OV-3 ovarian
[16] = test system: DU-145 prostate
[17] = test system: RPMI-8226 leukemia
[18] = test system: SNB-75 CNS
[19] = test system: OVCAR-8 ovarian
[20] = test system: MOLT-4 leukemia
[21] = test system: PC-3 prostate
[22] = test system: T-47D breast
[23] = test system: A549 NSCLC
[24] = test system: MDA-MB-435
[25] = test system: 786-0 renal
[26] = test system: MALME-3M melanoma
[27] = test system: OVCAR-5 ovarian
[28] = test system: SK-MEL-2 melanoma
[29] = test system: HS 578T breast
[30] = test system: SW-620 colon
[31] = test system: NCI-H23 lung
[32] = test system: SK-MEL-5 melanoma
[33] = test system: NCI/ADR-RES ovarian
[34] = test system: MDA-MB-231 breast
[35] = test system: HCC-2998 colon
[36] = test system: NCI-H522 lung
[37] = test system: NCI-H226 lung
[38] = test system: LOX IMVI melanoma
[39] = test system: ACHN renal
[40] = test system: SR leukemia
[41] = test system: SF-539 CNS
[42] = test system: CAKI-1 renal
[43] = test system: TK-10 renal
[44] = test system: HCT-116 colon
[45] = test system: SK-MEL-28 melanoma
[46] = test system: CCRF-CEM leukemia
[47] = test system: HT29 colon
[48] = test system: SF-268 CNS
[49] = test system: UACC-257 melanoma
[50] = test system: SN12C renal
[51] = test system: K-562 leukemia
[52] = test system: KM12 colon
[53] = test system: NCI-H460 lung
[54] = test system: A498 renal

## COc1cc(-c2nnc(SCc3ccc(O)c4ncccc34)n2-c2ccccc2)cc(OC)c1OC
[1]
  GI50: 272 nM
  TGI: > 100 µM
[2]
  GI50: 276 nM
[3]
  GI50: 386 nM
  TGI: 2420 nM
[4]
  GI50: 66 nM
  TGI: > 100 µM
[5]
  GI50: 367 nM
  TGI: > 100 µM
[6]
  GI50: 53 nM
  TGI: > 100 µM
[7]
  GI50: 331 nM
  TGI: 2340 nM
[8]
  GI50: 200 nM
  TGI: > 100 µM
[9]
  GI50: 113 nM
  TGI: 991 nM
[10]
  GI50: 37.7 nM
  TGI: > 100 µM
[11]
  GI50: 178 nM
  TGI: > 26 µM
[12]
  GI50: 261 nM
[13]
  GI50: 400 nM
  TGI: > 100 µM
[14]
  GI50: 128 nM
  TGI: > 100 µM
[15]
  GI50: 302 nM
  TGI: 23.5 µM
[16]
  GI50: 273 nM
  TGI: > 100 µM
[17]
  GI50: 190 nM
  TGI: > 100 µM
[18]
  GI50: 229 nM
  TGI: > 20.2 µM
[19]
  GI50: 102 nM
  TGI: > 100 µM
[20]
  GI50: 294 nM
  TGI: > 100 µM
[21]
  GI50: 87.4 nM
  TGI: > 100 µM
[22]
  GI50: 71.2 nM
  TGI: > 100 µM
[23]
  GI50: 412 nM
  TGI: > 100 µM
[24]
  GI50: 194 nM
  TGI: > 100 µM
[25]
  GI50: 498 nM
  TGI: > 20.9 µM
[26]
  GI50: 336 nM
  TGI: > 20.6 µM
[27]
  GI50: 668 nM
  TGI: > 100 µM
[28]
  GI50: 197 nM
  TGI: 626 nM
[29]
  GI50: 161 nM
[30]
  GI50: 158 nM
  TGI: > 100 µM
[31]
  GI50: 75.7 nM
  TGI: > 100 µM
[32]
  GI50: 207 nM
  TGI: 899 nM
[33]
  GI50: 67.8 nM
  TGI: > 100 µM
[34]
  GI50: 390 nM
  TGI: > 100 µM
[35]
  GI50: 447 nM
  TGI: > 100 µM
[36]
  GI50: 86.3 nM
  TGI: 921 nM
[37]
  GI50: 359 nM
  TGI: > 100 µM
[38]
  GI50: 180 nM
  TGI: 4.44 µM
[39]
  GI50: 285 nM
  TGI: > 100 µM
[40]
  GI50: 140 nM
  TGI: > 100 µM
[41]
  GI50: 262 nM
[42]
  GI50: 274 nM
  TGI: > 100 µM
[43]
  GI50: 291 nM
  TGI: > 100 µM
[44]
  GI50: 97.9 nM
  TGI: > 40.3 µM
[45]
  GI50: 367 nM
  TGI: > 100 µM
[46]
  GI50: 188 nM
  TGI: > 100 µM
[47]
  GI50: 2040 nM
  TGI: > 100 µM
[48]
  GI50: 218 nM
  TGI: > 100 µM
[49]
  GI50: 342 nM
  TGI: 3.22 µM
[50]
  GI50: 211 nM
  TGI: > 100 µM
[51]
  GI50: 83 nM
  TGI: > 100 µM
[52]
  GI50: 336 nM
  TGI: > 100 µM
[53]
  GI50: 50 nM
  TGI: 2030 nM
[54]
  GI50: 320 nM
  TGI: 2320 nM

— PubChem BioAssay (NCI)
